Where only a bound is given, the exact number is not on record here.

Sequence of HCV NS5B polymerase (P26663 2420-3010): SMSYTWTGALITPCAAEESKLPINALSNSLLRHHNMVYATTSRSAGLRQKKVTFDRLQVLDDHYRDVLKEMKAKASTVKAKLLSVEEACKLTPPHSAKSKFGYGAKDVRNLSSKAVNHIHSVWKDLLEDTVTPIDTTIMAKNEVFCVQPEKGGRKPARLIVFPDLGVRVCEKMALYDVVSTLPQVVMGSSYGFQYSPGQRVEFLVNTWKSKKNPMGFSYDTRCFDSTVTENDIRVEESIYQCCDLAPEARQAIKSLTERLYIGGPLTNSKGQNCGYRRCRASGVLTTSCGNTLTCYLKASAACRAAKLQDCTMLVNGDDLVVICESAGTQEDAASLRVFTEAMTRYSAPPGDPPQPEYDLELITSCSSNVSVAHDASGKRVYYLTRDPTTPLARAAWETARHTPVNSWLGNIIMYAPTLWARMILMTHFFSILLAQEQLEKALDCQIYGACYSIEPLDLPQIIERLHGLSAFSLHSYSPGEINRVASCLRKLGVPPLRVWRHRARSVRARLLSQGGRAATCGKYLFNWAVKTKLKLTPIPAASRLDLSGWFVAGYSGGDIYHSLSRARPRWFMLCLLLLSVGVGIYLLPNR

This assay has as its target HCV NS5B polymerase (Hepatitis C virus genotype 1b, UniProt P26663). Description: biochemical. The conditions noted are these: HCV polymerase inhibition, 50 nM enzyme, 2 h at room temperature, FlashPlate [α-33P]GTP incorporation.
As for `CC(C)(C)CCn1nc(-c2cccs2)c(O)c(C2=NS(=O)(=O)c3cc(NS(N)(=O)=O)ccc3N2)c1=O` [N-{3-[2-(3,3-Dimethyl-butyl)-5-hydroxy-3-oxo-6-thiophen-2-yl-2,3-dihydro-pyridazin-4-yl]-1,1-dioxo-1,2-dihydro-1λ^6-benzo[1,2,4]thiadiazin-7-yl}-sulfamide], the IC50 (in general, the concentration needed to halve the response being measured) was less than 100 nM.
For `CS(=O)(=O)Nc1ccc2c(c1)S(=O)(=O)N=C(c1c(O)c(-c3cccs3)nn(CCC3CC3)c1=O)N2` [N-{3-[2-(2-Cyclopropyl-ethyl)-5-hydroxy-3-oxo-6-thiophen-2-yl-2,3-dihydro-pyridazin-4-yl]-1,1-dioxo-1,2-dihydro-1λ^6-benzo[1,2,4]thiadiazin-7-yl}-methanesulfonamide] the value was less than 100 nM; for `CCC(C)(C)CCn1nc(-c2cccs2)c(O)c(C2=NS(=O)(=O)c3cc(NS(C)(=O)=O)ccc3N2)c1=O` [N-{3-[2-(3,3-Dimethyl-pentyl)-5-hydroxy-3-oxo-6-thiophen-2-yl-2,3-dihydro-pyridazin-4-yl]-1,1-dioxo-1,2-dihydro-1λ^6-benzo[1,2,4]thiadiazin-7-yl}-methanesulfonamide], less than 100 nM.
Consider `CC(C)CCn1nc(-c2cccs2)c(O)c(C2=Nc3ccc(NC(=O)OC(C)C)cc3S(=O)(=O)N2)c1=O` [{3-[5-Hydroxy-2-(3-methyl-butyl)-3-oxo-6-thiophen-2-yl-2,3-dihydro-pyridazin-4-yl]-1,1-dioxo-1,2-dihydro-1λ^6-benzo[1,2,4]thiadiazin-7-yl}-carbamic acid isopropyl ester], for which the concentration for half-maximal inhibition (IC50) lay within 1000 to 10000 nM.
For the compound `CN1C(c2c(O)c(-c3cccs3)nn(Cc3ccc(F)cc3)c2=O)=NS(=O)(=O)c2cc(NS(C)(=O)=O)ccc21` [N-{3-[2-(4-Fluoro-benzyl)-5-hydroxy-3-oxo-6-thiophen-2-yl-2,3-dihydro-pyridazin-4-yl]-4-methyl-1,1-dioxo-1,4-dihydro-1λ^6-benzo[1,2,4]thiadiazin-7-yl}-methanesulfonamide], the IC50 fell in the range of 1000 to 10000 nM.
The compound `CS(=O)(=O)Nc1ccc2c(c1)S(=O)(=O)NC(c1c(O)c(-c3cncs3)nn(Cc3ccc(F)cc3)c1=O)=N2` [N-{3-[2-(4-Fluoro-benzyl)-5-hydroxy-3-oxo-6-thiazol-5-yl-2,3-dihydro-pyridazin-4-yl]-1,1-dioxo-1,2-dihydro-1λ^6-benzo[1,2,4]thiadiazin-7-yl}-methanesulfonamide] returned a half-inhibitory concentration (IC50) of less than 100 nM.
As for `CC(C)CCn1nc(-c2cccs2)c(O)c(C2=NS(=O)(=O)c3cc(CCS(C)(=O)=O)ccc3N2)c1=O` [5-Hydroxy-4-[7-(2-methanesulfonyl-ethyl)-1,1-dioxo-1,2-dihydro-1λ^6-benzo[1,2,4]thiadiazin-3-yl]-2-(3-methyl-butyl)-6-thiophen-2-yl-2H-pyridazin-3-one], the IC50 was in the range of 100 to 1000 nM.
In turn, `O=c1c(C2=Nc3ccc(NS(=O)(=O)C4CC4)cc3S(=O)(=O)N2)c(O)c(-c2cccs2)nn1Cc1ccc(F)c(Cl)c1` [Cyclopropanesulfonic acid {3-[2-(3-chloro-4-fluoro-benzyl)-5-hydroxy-3-oxo-6-thiophen-2-yl-2,3-dihydro-pyridazin-4-yl]-1,1-dioxo-1,2-dihydro-1λ^6-benzo[1,2,4]thiadiazin-7-yl}-amide] gave an IC50 of 100 to 1000 nM.
For `CN(c1ccc2c(c1)S(=O)(=O)NC(c1c(O)c(CC(C)(C)C)nn(CC3CCC3)c1=O)=N2)S(C)(=O)=O` [N-{3-[2-Cyclobutylmethyl-6-(2,2-dimethyl-propyl)-5-hydroxy-3-oxo-2,3-dihydro-pyridazin-4-yl]-1,1-dioxo-1,2-dihydro-1λ^6-benzo[1,2,4]thiadiazin-7-yl}-N-methyl-methanesulfonamide] the value was 1000 to 10000 nM.
For `CCCS(=O)(=O)Nc1ccc2c(c1)S(=O)(=O)N=C(c1c(O)c(-c3cccs3)nn(CCC(C)C)c1=O)N2` [Propane-1-sulfonic acid {3-[5-hydroxy-2-(3-methyl-butyl)-3-oxo-6-thiophen-2-yl-2,3-dihydro-pyridazin-4-yl]-1,1-dioxo-1,2-dihydro-1λ^6-benzo[1,2,4]thiadiazin-7-yl}-amide] the value was less than 100 nM; for `CS(=O)(=O)Nc1ccc2c(c1)S(=O)(=O)N=C(c1c(O)c(-c3cccs3)nn(Cc3ccsc3)c1=O)N2` [N-[3-(5-Hydroxy-3-oxo-6-thiophen-2-yl-2-thiophen-3-ylmethyl-2,3-dihydro-pyridazin-4-yl)-1,1-dioxo-1,2-dihydro-1λ^6-benzo[1,2,4]thiadiazin-7-yl]-methanesulfonamide], less than 100 nM.
For `CC(C)CCn1nc(-c2ccccc2)c(O)c(C2=Nc3ccc(NS(C)(=O)=O)cc3S(=O)(=O)N2)c1=O` [N-{3-[5-Hydroxy-2-(3-methyl-butyl)-3-oxo-6-phenyl-2,3-dihydro-pyridazin-4-yl]-1,1-dioxo-1,2-dihydro-1λ^6-benzo[1,2,4]thiadiazin-7-yl}-methanesulfonamide] the value was less than 100 nM.
Take `CC(C)CC(C)n1nc(-c2cccs2)c(O)c(C2=NS(=O)(=O)c3cc(NS(C)(=O)=O)ccc3N2)c1=O` (centres unmarked) [N-{3-[2-(1,3-Dimethyl-butyl)-5-hydroxy-3-oxo-6-thiophen-2-yl-2,3-dihydro-pyridazin-4-yl]-1,1-dioxo-1,2-dihydro-1λ^6-benzo[1,2,4]thiadiazin-7-yl}-methanesulfonamide]: the IC50 lay within 100 to 1000 nM.
As for `CC(C)CCn1nc(-c2cc[nH]c2)c(O)c(C2=Nc3ccc(NS(C)(=O)=O)cc3S(=O)(=O)N2)c1=O` [N-{3-[5-Hydroxy-2-(3-methyl-butyl)-3-oxo-6-(1H-pyrrol-3-yl)-2,3-dihydro-pyridazin-4-yl]-1,1-dioxo-1,2-dihydro-1λ^6-benzo[1,2,4]thiadiazin-7-yl}-methanesulfonamide], the 50% inhibitory concentration (IC50) is less than 100 nM.
For the compound `CC(C)(C)CCn1nc(-c2cccs2)c(O)c(C2=Nc3ccc(NS(=O)(=O)CCN)cc3S(=O)(=O)N2)c1=O` [2-Amino-ethanesulfonic acid {3-[2-(3,3-dimethyl-butyl)-5-hydroxy-3-oxo-6-thiophen-2-yl-2,3-dihydro-pyridazin-4-yl]-1,1-dioxo-1,2-dihydro-1λ^6-benzo[1,2,4]thiadiazin-7-yl}-amide], the IC50 is less than 100 nM.
Compound `CCC(C)(C)c1nn(CCC(C)C)c(=O)c(C2=NS(=O)(=O)c3cc(NS(C)(=O)=O)ccc3N2)c1O` [N-{3-[6-(1,1-Dimethyl-propyl)-5-hydroxy-2-(3-methyl-butyl)-3-oxo-2,3-dihydro-pyridazin-4-yl]-1,1-dioxo-1,2-dihydro-1λ^6-benzo[1,2,4]thiadiazin-7-yl}-methanesulfonamide] came in with a half-inhibitory concentration (IC50) of 100 to 1000 nM.
For `CC(C)CCn1nc(C2=CCCC2)c(O)c(C2=NS(=O)(=O)c3cc(NS(C)(=O)=O)ccc3N2)c1=O` [N-{3-[6-Cyclopent-1-enyl-5-hydroxy-2-(3-methyl-butyl)-3-oxo-2,3-dihydro-pyridazin-4-yl]-1,1-dioxo-1,2-dihydro-1λ^6-benzo[1,2,4]thiadiazin-7-yl}-methanesulfonamide] the value was less than 100 nM.
